The target of assay [1] is human GLP-1 receptor (hGLP-1R) (Homo sapiens, UniProt P43220). Kind of assay: cAMP production (HTRF) in CHO cells expressing hGLP-1R. Type of assay: cell-based. Set-up: expressed in transfected cells. The following applies: for EC50: Table 7, peptides modified at position 20, cAMP in CHO hGLP-1R cells, geometric mean, read-out: hGLP-1R EC50; for % Relative Potency Ratio: Table 7, % GLP-1R activity relative to GLP-1 / % GlucR activity relative to glucagon. In a few lines:
(§1)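 Read-out: HTRF cAMP (anti-cAMP cryptate donor, cAMP-d2 acceptor in conjugate/lysis buffer), converted to % Delta F and fitted by 4-parameter logistic for EC50. Cell densities were 1×10^5 cells/mL (hGLP-1R) or 2×10^5 cells/mL (hGCGR). Stimulation lasted 30 min at room temperature.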

The target of assay [2] is human glucagon receptor (hGCGR) (Homo sapiens, UniProt P47871). Kind of assay: cAMP production (HTRF) in CHO cells expressing hGCGR. The format is cell-based. Set-up: expressed in transfected cells. As to conditions: Table 7, peptides modified at position 20; cAMP in CHO hGCGR cells; geometric mean; read-out: hGluc-R EC50. In a few lines:
as §1

Starred links: 1 amine or outer side, 2 acyl side, 3 side chain; linkers in the order of their positions; H or OH if unused. Non-standard residues stand in square brackets, D forms with d. Residues, ends and D or L forms follow the SMILES beside them. Groups on a side chain read outwards from the residue. *: point of attachment. C18 diacid = O=C(O)CCCCCCCCCCCCCCCCC(=O)*; γGlu = O=C(O)[C@H](CCC(=O)[*:2])N[*:1]; αMeF = C[C@](N)(Cc1ccccc1)C(=O)O; Ac4c = NC1(C(=O)O)CCC1; AEEA = NCCOCCOCC(=O)O; Ac3c = NC1(C(=O)O)CC1; Aib = CC(C)(N)C(=O)O A value given as a limit tells only on which side of the number the result lay.

human GLP-1 receptor (hGLP-1R), sequence (P43220 24-463): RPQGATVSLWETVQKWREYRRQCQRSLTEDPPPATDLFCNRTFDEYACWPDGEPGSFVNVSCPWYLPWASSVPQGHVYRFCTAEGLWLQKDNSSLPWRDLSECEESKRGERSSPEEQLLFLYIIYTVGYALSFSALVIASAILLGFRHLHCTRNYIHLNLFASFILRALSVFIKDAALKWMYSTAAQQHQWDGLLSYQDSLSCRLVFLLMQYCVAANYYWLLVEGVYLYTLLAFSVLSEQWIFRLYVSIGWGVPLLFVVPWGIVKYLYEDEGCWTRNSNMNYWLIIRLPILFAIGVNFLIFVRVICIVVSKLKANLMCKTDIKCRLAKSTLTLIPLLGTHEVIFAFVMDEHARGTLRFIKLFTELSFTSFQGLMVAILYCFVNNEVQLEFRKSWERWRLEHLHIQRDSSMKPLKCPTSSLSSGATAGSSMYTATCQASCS
human glucagon receptor (hGCGR), sequence (P47871 26-477): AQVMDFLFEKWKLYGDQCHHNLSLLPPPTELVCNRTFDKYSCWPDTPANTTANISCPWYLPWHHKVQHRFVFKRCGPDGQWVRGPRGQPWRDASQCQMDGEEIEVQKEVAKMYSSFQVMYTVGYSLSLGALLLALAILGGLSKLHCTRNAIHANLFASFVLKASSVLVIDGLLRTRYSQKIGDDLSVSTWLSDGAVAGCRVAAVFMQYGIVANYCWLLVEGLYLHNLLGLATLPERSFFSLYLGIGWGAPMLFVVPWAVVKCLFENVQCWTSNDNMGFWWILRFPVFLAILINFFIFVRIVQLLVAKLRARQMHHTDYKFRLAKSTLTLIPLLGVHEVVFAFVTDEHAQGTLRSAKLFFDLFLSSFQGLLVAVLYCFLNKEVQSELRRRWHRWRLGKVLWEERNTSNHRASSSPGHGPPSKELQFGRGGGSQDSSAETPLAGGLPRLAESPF

One may read the EC50 as the midpoint of the concentration-response curve. On to `CC[C@H](C)[C@H](NC(=O)C(C)(C)NC(=O)[C@H](CCC(N)=O)NC(=O)[C@@H](NC(=O)[C@](C)(Cc1ccccc1)NC(=O)[C@H](CC(=O)O)NC(=O)[C@H](CCCCNC(=O)COCCOCCNC(=O)COCCOCCNC(=O)CC[C@H](NC(=O)CCCCCCCCCCCCCCCCC(=O)O)C(=O)O)NC(=O)[C@H](C)NC(=O)[C@H](C)NC(=O)[C@H](CCCNC(=N)N)NC(=O)[C@H](CO)NC(=O)[C@H](CC(=O)O)NC(=O)[C@H](CC(C)C)NC(=O)[C@](C)(Cc1ccccc1)NC(=O)[C@H](CCCCN)NC(=O)[C@H](CO)NC(=O)[C@@H](NC(=O)[C@H](CC(=O)O)NC(=O)[C@H](CO)NC(=O)[C@@H](NC(=O)[C@](C)(Cc1ccccc1)NC(=O)[C@H](CO)NC(=O)CNC(=O)[C@@H](CCC(N)=O)NC(=O)[C@H](CO)NC(=O)[C@@H](N)Cc1c[nH]cn1)[C@@H](C)O)C(C)C)C(C)C)C(=O)N[C@@H](C)C(=O)N[C@@H](CC(N)=O)C(=O)N[C@H](C(N)=O)[C@@H](C)O` [Peptide 326] (H-HS[dQ]GS[αMeF]TSDVSK[αMeF]LDSRAAK([AEEA-AEEA-γGlu-C18 diacid])D[αMeF]VQ[Aib]IANT-NH2), for which the EC50 is 6.74 nM in assay [1] and > 25.6 nM in assay [2].
With `CC[C@H](C)[C@H](NC(=O)C(C)(C)NC(=O)[C@H](CCC(N)=O)NC(=O)[C@@H](NC(=O)[C@](C)(Cc1ccccc1)NC(=O)[C@H](CC(=O)O)NC(=O)[C@H](CCCCNC(=O)COCCOCCNC(=O)COCCOCCNC(=O)CC[C@H](NC(=O)CCCCCCCCCCCCCCCCC(=O)O)C(=O)O)NC(=O)[C@H](C)NC(=O)[C@H](C)NC(=O)[C@H](CCCNC(=N)N)NC(=O)[C@H](CO)NC(=O)[C@H](CC(=O)O)NC(=O)[C@H](CC(C)C)NC(=O)[C@](C)(Cc1ccccc1)NC(=O)[C@H](CCCCN)NC(=O)[C@H](CO)NC(=O)[C@@H](NC(=O)[C@H](CC(=O)O)NC(=O)[C@H](CO)NC(=O)[C@@H](NC(=O)[C@](C)(Cc1ccccc1)NC(=O)[C@H](CO)NC(=O)CNC(=O)[C@H](CCC(N)=O)NC(=O)C1(NC(=O)[C@@H](N)Cc2c[nH]cn2)CC1)[C@@H](C)O)C(C)C)C(C)C)C(=O)N[C@@H](C)C(=O)N[C@@H](CC(N)=O)C(=O)N[C@H](C(N)=O)[C@@H](C)O` [Peptide 327] (H-H[Ac3c]QGS[αMeF]TSDVSK[αMeF]LDSRAAK([AEEA-AEEA-γGlu-C18 diacid])D[αMeF]VQ[Aib]IANT-NH2), the EC50 is 0.0301 nM in assay [1] and > 25.7 nM in assay [2].
Take `CC[C@H](C)[C@H](NC(=O)C(C)(C)NC(=O)[C@H](CCC(N)=O)NC(=O)[C@@H](NC(=O)[C@](C)(Cc1ccccc1)NC(=O)[C@H](CC(=O)O)NC(=O)[C@H](CCCCNC(=O)COCCOCCNC(=O)COCCOCCNC(=O)CC[C@H](NC(=O)CCCCCCCCCCCCCCCCC(=O)O)C(=O)O)NC(=O)[C@H](C)NC(=O)[C@H](C)NC(=O)[C@H](CCCNC(=N)N)NC(=O)[C@H](CO)NC(=O)[C@H](CC(=O)O)NC(=O)[C@H](CC(C)C)NC(=O)[C@](C)(Cc1ccccc1)NC(=O)[C@H](CCCCN)NC(=O)[C@H](CO)NC(=O)[C@@H](NC(=O)[C@H](CC(=O)O)NC(=O)[C@H](CO)NC(=O)[C@@H](NC(=O)[C@](C)(Cc1ccccc1)NC(=O)[C@H](CO)NC(=O)CNC(=O)[C@H](CCC(N)=O)NC(=O)C1(NC(=O)[C@@H](N)Cc2c[nH]cn2)CCC1)[C@@H](C)O)C(C)C)C(C)C)C(=O)N[C@@H](C)C(=O)N[C@@H](CC(N)=O)C(=O)N[C@H](C(N)=O)[C@@H](C)O` [Peptide 328] (H-H[Ac4c]QGS[αMeF]TSDVSK[αMeF]LDSRAAK([AEEA-AEEA-γGlu-C18 diacid])D[αMeF]VQ[Aib]IANT-NH2; N-terminus assumed): in assay [1], the EC50 is 0.0154 nM and the “% Relative Potency Ratio” value is listed as 218.8. In addition, in assay [2], the EC50 stood at 1.7 nM.
With `CC[C@H](C)[C@H](NC(=O)C(C)(C)NC(=O)[C@H](CCC(N)=O)NC(=O)[C@@H](NC(=O)[C@](C)(Cc1ccccc1)NC(=O)[C@H](CC(=O)O)NC(=O)[C@H](CCCCNC(=O)COCCOCCNC(=O)COCCOCCNC(=O)CC[C@H](NC(=O)CCCCCCCCCCCCCCCCC(=O)O)C(=O)O)NC(=O)[C@H](C)NC(=O)[C@H](C)NC(=O)[C@H](CCCNC(=N)N)NC(=O)[C@H](CO)NC(=O)[C@H](CC(=O)O)NC(=O)[C@H](CC(C)C)NC(=O)[C@](C)(Cc1ccccc1)NC(=O)[C@H](CCCCN)NC(=O)[C@H](CO)NC(=O)[C@@H](NC(=O)[C@H](CC(=O)O)NC(=O)[C@H](CO)NC(=O)[C@@H](NC(=O)[C@](C)(Cc1ccccc1)NC(=O)[C@H](CO)NC(=O)CNC(=O)[C@H](CCC(N)=O)NC(=O)[C@@H](CO)NC(=O)[C@@H](N)Cc1c[nH]cn1)[C@@H](C)O)C(C)C)C(C)C)C(=O)N[C@@H](C)C(=O)N[C@@H](CC(N)=O)C(=O)N[C@H](C(N)=O)[C@@H](C)O` [Peptide 330] (H-H[dS]QGS[αMeF]TSDVSK[αMeF]LDSRAAK([AEEA-AEEA-γGlu-C18 diacid])D[αMeF]VQ[Aib]IANT-NH2), the concentration giving a half-maximal response (EC50) is 0.488 nM in assay [1] and > 25.6 nM in assay [2].
Take `CC(C)C[C@H](NC(=O)[C@H](Cc1c[nH]c2ccccc12)NC(=O)[C@H](CCCNC(=N)N)NC(=O)[C@@H](NC(=O)[C@H](Cc1ccccc1)NC(=O)[C@H](CC(=O)O)NC(=O)[C@H](CCCCNC(=O)COCCOCCNC(=O)COCCOCCNC(=O)CC[C@H](NC(=O)CCCCCCCCCCCCCCCCC(=O)O)C(=O)O)NC(=O)[C@H](C)NC(=O)[C@H](CCCNC(=N)N)NC(=O)[C@H](CCCNC(=N)N)NC(=O)[C@H](CO)NC(=O)[C@H](CC(=O)O)NC(=O)[C@H](CC(C)C)NC(=O)[C@](C)(Cc1ccccc1)NC(=O)[C@H](CCCCN)NC(=O)[C@H](CO)NC(=O)[C@@H](NC(=O)[C@H](CC(=O)O)NC(=O)[C@H](CO)NC(=O)[C@@H](NC(=O)[C@H](Cc1ccccc1)NC(=O)[C@@H](NC(=O)CNC(=O)[C@H](CCC(N)=O)NC(=O)C(C)(C)NC(=O)[C@@H](N)Cc1c[nH]cn1)[C@@H](C)O)[C@@H](C)O)C(C)C)C(C)C)C(=O)N[C@@H](CC(C)C)C(=O)N[C@@H](CCC(=O)O)C(=O)NC(C)(C)C(=O)NCC(=O)O` [Peptide 331]: in assay [1], the EC50 is 0.0626 nM and the “% Relative Potency Ratio” value is 2.1. The EC50 in assay [2] is 0.0666 nM.
Consider `CC(C)C[C@H](NC(=O)[C@H](Cc1c[nH]c2ccccc12)NC(=O)[C@H](CCC(N)=O)NC(=O)[C@@H](NC(=O)[C@H](Cc1ccccc1)NC(=O)[C@H](CC(=O)O)NC(=O)[C@H](CCCCNC(=O)COCCOCCNC(=O)COCCOCCNC(=O)CC[C@H](NC(=O)CCCCCCCCCCCCCCCCC(=O)O)C(=O)O)NC(=O)[C@H](C)NC(=O)[C@H](CCCNC(=N)N)NC(=O)[C@H](CCCNC(=N)N)NC(=O)[C@H](CO)NC(=O)[C@H](CC(=O)O)NC(=O)[C@H](CC(C)C)NC(=O)[C@](C)(Cc1ccccc1)NC(=O)[C@H](CCCCN)NC(=O)[C@H](CO)NC(=O)[C@@H](NC(=O)[C@H](CC(=O)O)NC(=O)[C@H](CO)NC(=O)[C@@H](NC(=O)[C@H](Cc1ccccc1)NC(=O)[C@@H](NC(=O)CNC(=O)[C@H](CCC(N)=O)NC(=O)C(C)(C)NC(=O)[C@@H](N)Cc1c[nH]cn1)[C@@H](C)O)[C@@H](C)O)C(C)C)C(C)C)C(=O)N[C@@H](CC(C)C)C(=O)N[C@@H](CCC(=O)O)C(=O)NC(C)(C)C(=O)NCC(=O)O` [Peptide 332], for which, in assay [1], the 50% effective concentration (EC50) was found to be 0.0775 nM and the “% Relative Potency Ratio” value came out at 1.5. Further, the EC50 in assay [2] is 0.0589 nM.
Taken in the same sequence, the figures for `CC(C)C[C@H](NC(=O)[C@H](Cc1c[nH]c2ccccc12)NC(=O)[C@H](CCC(N)=O)NC(=O)[C@@H](NC(=O)[C@H](Cc1ccccc1)NC(=O)[C@H](CC(=O)O)NC(=O)[C@H](CCCCNC(=O)COCCOCCNC(=O)COCCOCCNC(=O)CC[C@H](NC(=O)CCCCCCCCCCCCCCCCC(=O)O)C(=O)O)NC(=O)[C@H](C)NC(=O)[C@H](CCCNC(=N)N)NC(=O)[C@H](CCCNC(=N)N)NC(=O)[C@H](CO)NC(=O)[C@H](CC(=O)O)NC(=O)[C@H](CC(C)C)NC(=O)[C@](C)(Cc1ccccc1)NC(=O)[C@H](CCCCN)NC(=O)[C@H](CO)NC(=O)[C@@H](NC(=O)[C@H](CC(=O)O)NC(=O)[C@H](CO)NC(=O)[C@@H](NC(=O)[C@H](Cc1ccccc1)NC(=O)[C@@H](NC(=O)CNC(=O)[C@H](CCC(N)=O)NC(=O)C(C)(C)NC(=O)[C@@H](N)Cc1c[nH]cn1)[C@@H](C)O)[C@@H](C)O)C(C)C)C(C)C)C(=O)N[C@@H](CC(C)C)C(=O)NC(C)(C)C(=O)N[C@H](C(=O)N[C@@H](CCC(=O)O)C(=O)O)[C@@H](C)O` [Peptide 333] were 0.135 nM, 3.1 and 0.213 nM.
In the case of `CC(C)C[C@H](NC(=O)[C@H](Cc1c[nH]c2ccccc12)NC(=O)[C@H](CCC(N)=O)NC(=O)[C@@H](NC(=O)[C@H](Cc1ccccc1)NC(=O)[C@H](CC(=O)O)NC(=O)[C@H](CCCCNC(=O)CC[C@H](NC(=O)CCCCCCCCCCCCCCCCC(=O)O)C(=O)O)NC(=O)[C@H](C)NC(=O)[C@H](CCCNC(=N)N)NC(=O)[C@H](CCCNC(=N)N)NC(=O)[C@H](CO)NC(=O)[C@H](CC(=O)O)NC(=O)[C@H](CC(C)C)NC(=O)[C@](C)(Cc1ccccc1)NC(=O)[C@H](CCCCN)NC(=O)[C@H](CO)NC(=O)[C@H](Cc1ccc(O)cc1)NC(=O)[C@H](CC(=O)O)NC(=O)[C@H](CO)NC(=O)[C@@H](NC(=O)[C@H](Cc1ccccc1)NC(=O)[C@@H](NC(=O)CNC(=O)[C@H](CCC(N)=O)NC(=O)C(C)(C)NC(=O)[C@@H](N)Cc1c[nH]cn1)[C@@H](C)O)[C@@H](C)O)C(C)C)C(=O)N[C@@H](C)C(=O)NC(C)(C)C(=O)N[C@@H](CCC(=O)O)C(=O)O` [Peptide 334], in assay [1], the concentration for a half-maximal effect (EC50) came out at 0.25 nM and the “% Relative Potency Ratio” value is given as 3.7. Further, in assay [2], the EC50 stood at 0.462 nM.

(Values after patent US20250353891A1 (MEDIMMUNE LIMITED, priority 2022, published 2025).)
